Patent US20150344427A1 (EPIZYME, INC., priority 2012, published 2015)

Assays:
[1] = molecular target: T1, EZH2 Y641F mutant (PRC2 enzyme) (Homo sapiens, UniProt Q15910, Y641F); test: PRC2 enzyme assay on peptide substrate, EZH2 Y641F mutant; type: biochemical; settings: Y641F mutant PRC2 enzyme 4 nM, H3K27me2 peptide, 3H-SAM Flashplate
T1 construct: made in house; host or cells: Spodoptera frugiperda (sf9) cells, baculovirus
Description: (§1) General Materials. S-adenosylmethionine (SAM), S-adenosylhomocyteine (SAH), bicine, KCl, Tween20, dimethylsulfoxide (DMSO) and bovine skin gelatin (BSG) were purchased from Sigma-Aldrich at the highest level of purity possible. Dithiothreitol (DTT) was purchased from EMD. ^3H-SAM was purchased from American Radiolabeled Chemicals with a specific activity of 80 Ci/mmol. 384-well streptavidin Flashplates were purchased from PerkinElmer.
(§2) Peptides representative of human histone H3 residues 21-44 containing either an unmodified lysine 27 (H3K27me0) or dimethylated lysine 27 (H3K27me2) were synthesized with a C-terminal G(K-biotin) linker-affinity tag motif and a C-terminal amide cap by 21st Century Biochemicals. […] The sequences are listed below.
(§3) Human PRC2 enzymes were purified as 4-component enzyme complexes co-expressed in Spodoptera frugiperda (sf9) cells using a baculovirus expression system. […] The EED subunit contained an N-terminal FLAG tag that was used to purify the entire 4-component complex from sf9 cell lysates.
(§4) The assays were all performed in a buffer consisting of 20 mM bicine (pH=7.6), 0.5 mM DTT, 0.005% BSG and 0.002% Tween20, prepared on the day of use. Compounds in 100% DMSO (1 μL) were spotted into polypropylene 384-well V-bottom plates (Greiner) using a Platemate 2×3 outfitted with a 384-channel pipet head (Thermo). DMSO (1 μL) was added to columns 11, 12, 23, 24, rows A-H for the maximum signal control, and SAH, a known product and inhibitor of PRC2 (1 μL) was added to columns 11,12, 23, 24, rows I-P for the minimum signal control. A cocktail (40 μL) containing the wild-type PRC2 enzyme and H3K27me0 peptide or any of the Y641 mutant enzymes and H3K27me2 peptide was added by Multidrop Combi (Thermo). The compounds were allowed to incubate with PRC2 for 30 min at 25° C., then a cocktail (10 μL) containing a mixture of non-radioactive and ^3H-SAM was added to initiate the reaction (final volume=51 μL). In all cases, the final concentrations were as follows: wild-type or mutant PRC2 enzyme was 4 nM, SAH in the minimum signal control wells was 1 mM and the DMSO concentration was 1%. The assays were stopped by the addition of non-radioactive SAM (10 μL) to a final concentration of 600 μM, which dilutes the ^3H-SAM to a level where its incorporation into the peptide substrate is no longer detectable. 50 μL of the reaction in the 384-well polypropylene plate was then transferred to a 384-well Flashplate and the biotinylated peptides were allowed to bind to the streptavidin surface for at least 1 h before being washed three times with 0.1% Tween20 in a Biotek ELx405 plate washer. The plates were then read in a PerkinElmer TopCount platereader to measure the quantity of ^3H-labeled peptide bound to the Flashplate surface, measured as disintegrations per minute (dpm) or alternatively, referred to as counts per minute (cpm).
(§5) Where dpm=disintegrations per minute, cmpd=signal in assay well, and min and max are the respective minimum and maximum signal controls.
(§6) Where top and bottom are the normally allowed to float, but may be fixed at 100 or 0 respectively in a 3-parameter fit. The Hill Coefficient normally allowed to float but may also be fixed at 1 in a 3-parameter fit. Y is the % inhibition and X is the compound concentration.

[2] = test system: H3K27 trimethylation in WSU-DLCL2 cells; test: WSU-DLCL2 Methylation Assay (H3K27me3 ELISA); type: cell-based; settings: Homo sapiens, WSUDLCL2, 96 hours incubation, H3K27me3 normalised to total Histone H3
Description: WSU-DLCL2 suspension cells were purchased from DSMZ (German Collection of Microorganisms and Cell Cultures, Braunschweig, Germany). RPMI/Glutamax Medium, Penicillin-Streptomycin, Heat Inactivated Fetal Bovine Serum, and D-PBS were purchased from Life Technologies, Grand Island, N.Y., USA. Extraction Buffer and Neutralization Buffer (5×) were purchased from Active Motif, Carlsbad, Calif., USA. Rabbit anti-Histone H3 antibody was purchased from Abcam, Cambridge, Mass., USA. Rabbit anti-H3K27me3 and HRP-conjugated anti-rabbit-IgG were purchased from Cell Signaling Technology, Danvers, Mass., USA. TMB “Super Sensitive” substrate was sourced from BioFX Laboratories, Owings Mills, Md., USA. IgG-free Bovine Serum Albumin was purchased from Jackson ImmunoResearch, West Grove, Pa., USA. PBS with Tween (10×PBST) was purchased from KPL, Gaithersburg, Md., USA. Sulfuric Acid was purchased from Ricca Chemical, Arlington, Tex., USA. Immulon ELISA plates were purchased from Thermo, Rochester, N.Y., USA. V-bottom cell culture plates were purchased from Corning Inc., Corning, N.Y., USA. V-bottom polypropylene plates were purchased from Greiner Bio-One, Monroe, N.C., USA.
(§7) WSU-DLCL2 suspension cells were maintained in growth medium (RPMI 1640 supplemented with 10% v/v heat inactivated fetal bovine serum and 100 units/mL penicillin-streptomycin) and cultured at 37° C. under 5% CO2 Under assay conditions, cells were incubated in Assay Medium (RPMI 1640 supplemented with 20% v/v heat inactivated fetal bovine serum and 100 units/mL penicillin-streptomycin) at 37° C. under 5% CO2 on a plate shaker.
WSU-DLCL2 cells were seeded in assay medium at a concentration of 50,000 cells per mL to a 96-well V-bottom cell culture plate with 200 μL per well. Compound (1 μL) from 96 well source plates was added directly to V-bottom cell plate. Plates were incubated on a titer-plate shaker at 37° C., 5% CO2 for 96 hours. After four days of incubation, plates were spun at 241×g for five minutes and medium was aspirated gently from each well of cell plate without disturbing cell pellet. Pellet was resuspended in 200 μL DPBS and plates were spun again at 241×g for five minutes. The supernatant was aspirated and cold (4° C.) Extraction buffer (100 μL) was added per well. Plates were incubated at 4° C. on orbital shaker for two hours. Plates were spun at 3427×g×10 minutes. Supernatant (80 μL per well) was transferred to its respective well in 96 well V-bottom polypropylene plate. Neutralization Buffer 5× (20 μL per well) was added to V-bottom polypropylene plate containing supernatant. V-bottom polypropylene plates containing crude histone preparation (CHP) were incubated on orbital shaker x five minutes. Crude Histone Preparations were added (2 μL per well) to each respective well into duplicate 96 well ELISA plates containing 100 μL Coating Buffer (1×PBS+BSA 0.05% w/v). Plates were sealed and incubated overnight at 4° C. The following day, plates were washed three times with 300 μL per well 1×PBST. Wells were blocked for two hours with 300 μL per well ELISA Diluent ((PBS (1×) BSA (2% w/v) and Tween20 (0.05% v/v)). Plates were washed three times with 1×PBST. For the Histone H3 detection plate, 100 μL per well were added of anti-Histone-H3 antibody (Abcam, ab1791) diluted 1:10,000 in ELISA Diluent. For H3K27 trimethylation detection plate, 100 μL per well were added of anti-H3K27me3 diluted 1:2000 in ELISA diluent. Plates were incubated for 90 minutes at room temperature. Plates were washed three times with 300 μL 1×PBST per well. For Histone H3 detection, 100 μL of HRP-conjugated anti-rabbit IgG antibody diluted to 1:6000 in ELISA diluent was added per well. For H3K27me3 detection, 100 μL of HRP conjugated anti-rabbit IgG antibody diluted to 1:4000 in ELISA diluent was added per well. Plates were incubated at room temperature for 90 minutes. Plates were washed four times with 1×PBST 300 μL per well. TMB substrate 100 μL was added per well. […]

[3] = molecular target: T2, wild-type EZH2 (PRC2 enzyme) (Homo sapiens, UniProt Q15910); test: PRC2 enzyme assay on peptide substrate, wild-type EZH2; type: biochemical; settings: wild-type PRC2 enzyme 4 nM, H3K27me0 peptide, 3H-SAM Flashplate; read-out: WT EZH2 IC50
T2 construct: made in house; host or cells: Spodoptera frugiperda (sf9) cells, baculovirus
Description: as §1, §2, §3, §4, §5, §6

WSU-DLCL2 cells = test: Cell Proliferation Analysis, WSU-DLCL2; type: cell-based; settings: Homo sapiens, WSUDLCL2, 144 h, 6 days, Cell Titer Glo
Description: WSU-DLCL2 suspension cells were purchased from DSMZ (German Collection of Microorganisms and Cell Cultures, Braunschweig, Germany). RPMI/Glutamax Medium, Penicillin-Streptomycin, Heat Inactivated Fetal Bovine Serum were purchased from Life Technologies, Grand Island, N.Y., USA. V-bottom polypropylene 384-well plates were purchased from Greiner Bio-One, Monroe, N.C., USA. Cell culture 384-well white opaque plates were purchased from Perkin Elmer, Waltham, Mass., USA. Cell-Titer Glo® was purchased from Promega Corporation, Madison, Wis., USA. SpectraMax M5 plate reader was purchased from Molecular Devices LLC, Sunnyvale, Calif., USA.
as §7, with “and” for “and 100 units/mL penicillin-streptomycin) and”, “CO2.” for “CO2”, “CO2.” for “CO2 on a plate shaker.”
For the assessment of the effect of compounds on the proliferation of the WSU-DLCL2 cell line, exponentially growing cells were plated in 384-well white opaque plates at a density of 1250 cell/ml in a final volume of 50 μl of assay medium. A compound source plate was prepared by performing triplicate nine-point 3-fold serial dilutions in DMSO, beginning at 10 mM (final top concentration of compound in the assay was 20 μM and the DMSO was 0.2%). A 100 nL aliquot from the compound stock plate was added to its respective well in the cell plate. […] After addition of compounds, assay plates were incubated for 6 days at 37° C., 5% CO2, relative humidity >90% for 6 days. Cell viability was measured by quantization of ATP present in the cell cultures, adding 35 μl of Cell Titer Glo® reagent to the cell plates. Luminescence was read in the SpectraMax M5. The concentration inhibiting cell viability by 50% was determined using a 4-parametric fit of the normalized dose response curves.

T1 sequence (Q15910 whole entry Y641F): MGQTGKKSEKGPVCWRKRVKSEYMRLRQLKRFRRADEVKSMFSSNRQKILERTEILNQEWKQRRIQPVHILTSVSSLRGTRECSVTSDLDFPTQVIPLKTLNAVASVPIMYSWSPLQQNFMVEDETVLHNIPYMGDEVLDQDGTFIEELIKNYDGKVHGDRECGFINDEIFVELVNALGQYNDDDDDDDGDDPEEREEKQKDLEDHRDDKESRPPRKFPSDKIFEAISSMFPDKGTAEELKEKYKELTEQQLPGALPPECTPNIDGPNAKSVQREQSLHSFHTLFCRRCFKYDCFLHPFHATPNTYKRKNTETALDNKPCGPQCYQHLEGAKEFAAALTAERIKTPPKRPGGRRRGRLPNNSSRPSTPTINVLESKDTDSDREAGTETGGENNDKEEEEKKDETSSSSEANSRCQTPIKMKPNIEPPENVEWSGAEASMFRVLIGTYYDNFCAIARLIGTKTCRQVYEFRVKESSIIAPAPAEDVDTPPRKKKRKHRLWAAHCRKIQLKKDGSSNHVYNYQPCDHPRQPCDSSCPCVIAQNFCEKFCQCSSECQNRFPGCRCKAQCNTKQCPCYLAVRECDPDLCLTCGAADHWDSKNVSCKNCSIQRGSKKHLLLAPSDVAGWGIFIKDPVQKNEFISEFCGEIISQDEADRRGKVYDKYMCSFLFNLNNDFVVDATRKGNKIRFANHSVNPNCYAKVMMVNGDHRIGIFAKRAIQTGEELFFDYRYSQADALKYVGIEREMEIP
T1 sequence (O75530 whole entry partner): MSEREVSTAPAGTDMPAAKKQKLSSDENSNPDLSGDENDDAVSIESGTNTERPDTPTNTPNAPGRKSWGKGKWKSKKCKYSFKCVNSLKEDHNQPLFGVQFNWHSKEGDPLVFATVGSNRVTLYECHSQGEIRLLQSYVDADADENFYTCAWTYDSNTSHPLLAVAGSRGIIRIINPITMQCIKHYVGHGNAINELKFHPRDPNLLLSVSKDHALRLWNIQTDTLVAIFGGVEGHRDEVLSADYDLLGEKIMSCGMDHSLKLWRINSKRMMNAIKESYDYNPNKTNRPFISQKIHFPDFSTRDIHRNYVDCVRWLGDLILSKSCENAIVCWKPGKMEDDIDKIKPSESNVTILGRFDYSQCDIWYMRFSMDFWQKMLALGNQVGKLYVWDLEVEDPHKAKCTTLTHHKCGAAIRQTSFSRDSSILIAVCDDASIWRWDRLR
T1 sequence (Q15022 whole entry partner): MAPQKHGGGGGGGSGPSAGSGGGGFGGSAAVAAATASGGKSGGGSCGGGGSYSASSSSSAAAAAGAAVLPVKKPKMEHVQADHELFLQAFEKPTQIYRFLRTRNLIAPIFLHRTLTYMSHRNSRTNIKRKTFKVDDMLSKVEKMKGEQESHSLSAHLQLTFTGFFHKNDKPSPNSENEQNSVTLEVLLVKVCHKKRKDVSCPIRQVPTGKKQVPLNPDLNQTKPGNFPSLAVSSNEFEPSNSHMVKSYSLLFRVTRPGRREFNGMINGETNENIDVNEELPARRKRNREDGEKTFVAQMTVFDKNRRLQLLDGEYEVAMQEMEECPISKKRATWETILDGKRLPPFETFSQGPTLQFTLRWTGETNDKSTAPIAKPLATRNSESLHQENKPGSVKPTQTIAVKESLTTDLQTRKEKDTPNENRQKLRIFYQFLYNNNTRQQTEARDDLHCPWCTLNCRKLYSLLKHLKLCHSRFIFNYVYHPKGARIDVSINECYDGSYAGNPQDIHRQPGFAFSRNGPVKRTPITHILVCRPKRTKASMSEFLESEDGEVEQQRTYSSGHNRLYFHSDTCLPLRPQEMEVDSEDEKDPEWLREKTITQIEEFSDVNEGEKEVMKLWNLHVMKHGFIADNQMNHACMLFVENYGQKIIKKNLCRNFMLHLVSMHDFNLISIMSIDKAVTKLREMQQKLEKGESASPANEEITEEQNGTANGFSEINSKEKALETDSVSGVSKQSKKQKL
T1 sequence (Q09028 whole entry partner): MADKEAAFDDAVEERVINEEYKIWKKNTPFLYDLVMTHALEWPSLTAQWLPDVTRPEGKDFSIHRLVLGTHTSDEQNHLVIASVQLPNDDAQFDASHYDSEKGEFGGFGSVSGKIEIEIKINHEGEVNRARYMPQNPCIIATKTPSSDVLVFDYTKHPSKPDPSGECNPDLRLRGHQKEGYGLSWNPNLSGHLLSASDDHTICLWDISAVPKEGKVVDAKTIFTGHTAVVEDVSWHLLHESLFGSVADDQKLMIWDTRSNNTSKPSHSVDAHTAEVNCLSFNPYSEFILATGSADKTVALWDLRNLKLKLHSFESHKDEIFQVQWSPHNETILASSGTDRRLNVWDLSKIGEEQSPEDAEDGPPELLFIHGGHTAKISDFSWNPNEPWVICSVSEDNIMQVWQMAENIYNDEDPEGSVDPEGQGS
T2 sequence (Q15910 whole entry): as the sequence (Q15910 whole entry Y641F) above, with F641Y counted along it
T2 sequence (O75530 whole entry partner): as the sequence (O75530 whole entry partner) above
T2 sequence (Q15022 whole entry partner): as the sequence (Q15022 whole entry partner) above
T2 sequence (Q09028 whole entry partner): as the sequence (Q09028 whole entry partner) above

Structure (SMILES)	IC50 [1]	IC50 [2]	IC50 [3]	IC50 (WSU-DLCL2 cells)
CCN(c1cc(Cl)cc(C(=O)NCc2c(Cl)[nH]c(C)cc2=O)c1C)C1CCN(CCOC)CC1 [Compound 104]	598 nM	49500 nM	870 nM	–
CCN(c1cc(C#CCN2CCOCC2)cc(C(=O)NCc2c(C)[nH]c(C)cc2=O)c1C)[C@H]1CC[C@H](N(C)C)CC1 [Compound 95]	12 nM	11400 nM	17 nM	–
CCN(c1cc(-c2ccc(CN3CCOCC3)cc2)cc(C(=O)NCc2c(C)[nH]c(C)cc2=O)c1C)C1CCOCC1 [Compound 2, N-((2,6-dimethyl-4-oxo-1,4-dihydropyridin-3-yl)methyl)-5-(ethyl(tetrahydro-2H-pyran-4-yl)amino)-4-methyl-4′-(morpholinomethyl)-[1,1′-biphenyl]-3-carboxamide]	–	8040 nM	–	19500 nM
CCN(c1cc(C#CC2(C)COC2)cc(C(=O)NCc2c(C)[nH]c(C)cc2=O)c1C)[C@H]1CC[C@H](N(C)C)CC1 [Compound 97]	8 nM	9200 nM	5 nM	–
CCN(c1cc(-c2ccc(CN3CCOCC3)cc2)cc(C(=O)NCc2c(Cl)[nH]c(C)cc2=O)c1C)C1CCOCC1 [Compound 4, N-((2-chloro-6-methyl-4-oxo-1,4-dihydropyridin-3-yl)methyl)-5-(ethyl(tetrahydro-2H-pyran-4-yl)amino)-4-methyl-4′-(morpholinomethyl)-[1,1′-biphenyl]-3-carboxamide]	–	9070 nM	–	6720 nM
CCN(c1cc(C#CCN2CCOCC2)cc(C(=O)NCc2c(Cl)[nH]c(C)cc2=O)c1C)[C@H]1CC[C@H](N(C)C)CC1 [Compound 96]	118 nM	4300 nM	130 nM	–
CCN(c1cc(-c2ccc(OCCOC)cc2)cc(C(=O)NCc2c(Cl)[nH]c(C)cc2=O)c1C)[C@H]1CC[C@H](N(C)CCOC)CC1 [Compound 102]	93 nM	10800 nM	150 nM	–
CCN(c1cc(Cl)cc(C(=O)NCc2c(C)[nH]c(C)cc2=O)c1C)[C@H]1CC[C@H](N(C)Cc2cccc(OC)c2)CC1 [Compound 99]	5 nM	560 nM	1 nM	–
CCN(c1cc(-c2ccc(CN3CCOCC3)cc2)cc(C(=O)NCc2c(C)[nH]c(C)cc2=O)c1C)[C@H]1CC[C@H](N(C)C)CC1 [Compound 98]	–	3100 nM	–	4400 nM
CCN(c1cc(Cl)cc(C(=O)NCc2c(Cl)[nH]c(C)cc2=O)c1C)[C@H]1CC[C@H](N(C)Cc2cccc(OC)c2)CC1 [Compound 101]	10 nM	3000 nM	15 nM	–
CCN(c1cc(Cl)cc(C(=O)NCc2c(C)[nH]c(C)cc2=O)c1C)C1CCN(CCOC)CC1 [Compound 103]	341 nM	41300 nM	360 nM	–
